Reference: ChEMBL document CHEMBL5500406, “Discovery of Novel Proteolysis-Targeting Chimera Molecules as Degraders of Programmed Cell Death-Ligand 1 for Breast Cancer Therapy” (J Med Chem, 2024)
Activity calls are given as the source filed them. The rule behind the calls is not given here.

Tests used:
[1] = Toxicity in BALB/c mouse allografted with mouse 4T1 cells assessed as pathological change in heart at 30 to 60 mg/kg, ip qd for 15 days by H and E staining based analysis; format: organism-based; conditions: in vivo, 360 h, dose 30-60 mg/kg, time 15 day
[2] = Toxicity in BALB/c mouse allografted with mouse 4T1 cells assessed as pathological change in heart at 60 mg/kg, ip qd for 15 days in presence of Paclitaxel by H and E staining based analysis; format: organism-based; conditions: in vivo, 360 h, time 15 day
[3] = Toxicity in BALB/c mouse allografted with mouse 4T1 cells assessed as pathological change in liver at 30 to 60 mg/kg, ip qd for 15 days by H and E staining based analysis; format: organism-based; conditions: in vivo, 360 h, dose 30-60 mg/kg, time 15 day
[4] = Toxicity in BALB/c mouse allografted with mouse 4T1 cells assessed as pathological change in liver at 60 mg/kg, ip qd for 15 days in presence of Paclitaxel by H and E staining based analysis; format: organism-based; conditions: in vivo, 360 h, time 15 day
[5] = Toxicity in BALB/c mouse allografted with mouse 4T1 cells assessed as pathological change in spleen at 30 to 60 mg/kg, ip qd for 15 days by H and E staining based analysis; format: organism-based; conditions: in vivo, 360 h, dose 30-60 mg/kg, time 15 day
[6] = Toxicity in BALB/c mouse allografted with mouse 4T1 cells assessed as pathological change in spleen at 60 mg/kg, ip qd for 15 days in presence of Paclitaxel by H and E staining based analysis; format: organism-based; conditions: in vivo, 360 h, time 15 day
[7] = Toxicity in BALB/c mouse allografted with mouse 4T1 cells assessed as pathological change in lung at 30 to 60 mg/kg, ip qd for 15 days by H and E staining based analysis; format: organism-based; conditions: in vivo, 360 h, dose 30-60 mg/kg, time 15 day
[8] = Toxicity in BALB/c mouse allografted with mouse 4T1 cells assessed as pathological change in lung at 60 mg/kg, ip qd for 15 days in presence of Paclitaxel by H and E staining based analysis; format: organism-based; conditions: in vivo, 360 h, time 15 day
[9] = Toxicity in BALB/c mouse allografted with mouse 4T1 cells assessed as pathological change in kidney at 30 to 60 mg/kg, ip qd for 15 days by H and E staining based analysis; format: organism-based; conditions: in vivo, 360 h, dose 30-60 mg/kg, time 15 day
[10] = Toxicity in BALB/c mouse allografted with mouse 4T1 cells assessed as pathological change in kidney at 60 mg/kg, ip qd for 15 days in presence of Paclitaxel by H and E staining based analysis; format: organism-based; conditions: in vivo, 360 h, time 15 day
[11] = Toxicity in BALB/c mouse allografted with mouse 4T1 cells assessed as abnormality in routine blood analysis at 30 to 60 mg/kg, ip qd for 15 days; format: organism-based; conditions: in vivo, 360 h, dose 30-60 mg/kg, time 15 day
[12] = Toxicity in BALB/c mouse allografted with mouse 4T1 cells assessed as abnormality in routine blood analysis at 60 mg/kg, ip qd for 15 days in presence of Paclitaxel; format: organism-based; conditions: in vivo, 360 h, time 15 day
[13] = Toxicity in BALB/c mouse allografted with mouse 4T1 cells assessed as abnormality in biochemical analysis at 30 to 60 mg/kg, ip qd for 15 days; format: organism-based; conditions: in vivo, 360 h, dose 30-60 mg/kg, time 15 day
[14] = Toxicity in BALB/c mouse allografted with mouse 4T1 cells assessed as abnormality in biochemical analysis at 60 mg/kg, ip qd for 15 days in presence of Paclitaxel; format: organism-based; conditions: in vivo, 360 h, time 15 day
4T1 [15] = experiment: In vivo PROTAC activity at CRBN/PD-L1 in mouse 4T1 cells allografted in BALB/c mouse assessed as protein degradation at 30 to 60 mg/kg, ip qd for 15 days by IHC analysis; format: functional, organism-based; conditions: dose 30-60 mg/kg, time 15.0 day
4T1 [16] = experiment: Antitumor activity against mouse 4T1 cells allografted in BALB/c mouse assessed as increase in CD4+ T cells infiltration in tumor at 30 to 60 mg/kg, ip qd for 15 days by IHC analysis; format: functional, organism-based; conditions: dose 30-60 mg/kg, time 15.0 day
4T1 [17] = experiment: Antitumor activity against mouse 4T1 cells allografted in BALB/c mouse assessed as increase in CD8+ T cells infiltration in tumor at 30 to 60 mg/kg, ip qd for 15 days by IHC analysis; format: functional, organism-based; conditions: dose 30-60 mg/kg, time 15.0 day
4T1 [18] = experiment: Antitumor activity against mouse 4T1 cells allografted in BALB/c mouse assessed as increase in GzmB mRNA level in tumor at 60 mg/kg, ip qd for 15 days by qRT-PCR analysis; format: functional, organism-based; conditions: time 15.0 day
4T1 [19] = experiment: Antitumor activity against mouse 4T1 cells allografted in BALB/c mouse assessed as increase in Prf1 mRNA level in tumor at 60 mg/kg, ip qd for 15 days by qRT-PCR analysis; format: functional, organism-based; conditions: time 15.0 day
4T1 [20] = experiment: Antitumor activity against mouse 4T1 cells allografted in BALB/c mouse assessed as increase in IFN-gamma mRNA level in tumor at 60 mg/kg, ip qd for 15 days by qRT-PCR analysis; format: functional, organism-based; conditions: time 15.0 day
[21] = Clearance in Sprague-Dawley rat at 3 mg/kg, iv measured for 24 hrs by LC-MS/MS analysis; format: ADME, organism-based; conditions: in vivo
[22] = Volume of distribution at steady state in Sprague-Dawley rat at 3 mg/kg, iv measured for 24 hrs by LC-MS/MS analysis; format: ADME, organism-based; conditions: in vivo, read-out: Vdss
[23] = Half life in Sprague-Dawley rat at 3 mg/kg, iv measured for 24 hrs by LC-MS/MS analysis; format: ADME, organism-based; conditions: in vivo
[24] = Tmax in Sprague-Dawley rat at 30 mg/kg, ip measured for 24 hrs by LC-MS/MS analysis; format: ADME, organism-based; conditions: in vivo
[25] = Cmax in Sprague-Dawley rat at 30 mg/kg, ip measured for 24 hrs by LC-MS/MS analysis; format: ADME, organism-based; conditions: in vivo
[26] = Half life in Sprague-Dawley rat at 30 mg/kg, ip measured for 24 hrs by LC-MS/MS analysis; format: ADME, organism-based; conditions: in vivo
[27] = […] bioavailability in Sprague-Dawley rat at 30 mg/kg, ip measured for 24 hrs by LC-MS/MS analysis; format: ADME, organism-based; conditions: in vivo

SMILES: COc1nc(OCc2cccc(-c3ccccc3)c2C)ccc1CNCCNC(=O)CCCCCCCCNC(=O)COc1ccc(C2CCC(=O)NC2=O)cc1 (configuration not stated)
- Activity [1]: Non-Toxic
- Activity [2]: Non-Toxic
- Activity [3]: Non-Toxic
- Activity [4]: Non-Toxic
- Activity [5]: Non-Toxic
- Activity [6]: Non-Toxic
- Activity [7]: Non-Toxic
- Activity [8]: Non-Toxic
- Activity [9]: Non-Toxic
- Activity [10]: Non-Toxic
- Activity [11]: Non-Toxic
- Activity [12]: Non-Toxic
- Activity [13]: Non-Toxic
- Activity [14]: Non-Toxic
- Activity (4T1 [15]): Active
- Activity (4T1 [16]): Active
- Activity (4T1 [17]): Active
- Activity (4T1 [18]): Active
- Activity (4T1 [19]): Active
- Activity (4T1 [20]): Active
- clearance [21]: 471 mL/min/kg
- Vd [22]: 23 L/kg
- half-life [23]: 0.952 h
- Tmax [24]: 2 h
- Cmax [25]: 217 ng/mL
- half-life [26]: 5.3 h
- bioavailability [27]: 71.2%
